In PMC9223658, “New Borane-Protected Derivatives of α-Aminophosphonous Acid as Anti-Osteosarcoma Agents: ADME Analysis and Molecular Modeling, In Vitro Studies on Anti-Cancer Activities, and NEP Inhibition as a Possible Mechanism of Anti-Proliferative Activity” (International Journal of Molecular Sciences, 2022):

Legend:
[1] = system: osteosarcoma HOS cells; assay: MTT proliferation assay, 96 h; type: cell-based, human; details: HOS; for IC50: proliferation, 10% FBS, read-out: IC50 (µM ± SD) HOS
Procedure: (§1) One of the features specific totumor cells is the unlimited potential for proliferation. […] To this end, the assay conditions were established suchthat they encourage the proliferation of OS cells, i.e., the cell cultures at low density were incubated with compounds diluted in the growth medium (10% FBS) for an extended time of 96 h. Additionally, cisplatin, i.e., a common cytostatic used in osteosarcoma treatment, was included as a positive control in this study. Moreover, since the new generation of anti-cancer compounds is highly desired to be inert (non-cytotoxic) towards normal cells, the influence of compounds 1–7 on the viability of human normal cells (osteoblasts hFOB 1.19 and colon fibroblasts CCD-18Co) was also determined.To this end, the assay conditions were established such that they restrict the proliferation of OS cells and to establish whether the compounds have cytotoxic potential, i.e., the cell cultures were incubated with compounds diluted in the medium with a reduced concentration of FBS (2%) for a shortened time of 24 h. […] However, this activity varied depending on both the types of the compounds and the osteosarcoma cell lines (Table 4).
(§2) The anti-proliferative activity of compounds 1–7 against the HOS and Saos-2 osteosarcoma cells and the viability of the human normal hFOB 1.19 and CCD-18Co cells were screened by means of the MTT method. This method is commonly used to assess cell viability and proliferation or to determine the cytotoxicity of any compounds. It is a reliable method for this purpose because it is based on measurement of the level reduction in MTT dye to formazan byNAD(P)H-dependent oxidoreductase enzymes of metabolically active cells.
(§3) To assess the anti-proliferative activity of compounds 1–7 against the HOS and Saos-2 osteosarcoma cells, 3.0 × 10^4 cells/mLseeded (low density culture) into 96-well plates (Nunc, Roskilde, Denmark) were incubated with each compound at concentrations of 3.125, 6.25, 12.5, 25, 50, 100 and 200 µM prepared in medium with 10% FBS (growth medium) for 96 h. Additionally, cisplatin (Sigma Aldrich), i.e., a common cytostatic used in osteosarcoma treatment, was included as a positive control in this study. It was tested in the same conditions as compounds 1–7. The negative control was constituted by the untreated cells (0 µM). Next, the MTT assay was carried out as described previously.
(§4) The results of these assays were calculated as a percent of the untreated cells (100%; control). Then, the IC50 (concentration resulting in 50% inhibition of proliferation) and CC50 (concentration resulting in a 50% decrease in viability) values were calculated from a non-linear regression (log(inhibitor) vs. normalized response-variable slope) using GraphPad Prism 5.0 (GraphPAD Software Inc., San Diego, CA, USA). The IC50 and CC50 results were presented as themean ± SD of at least three experiments. In the case of the BrdU assay, the results were presented as a percent of untreated cells (100%; control).

[2] = system: osteosarcoma Saos-2 cells; assay: MTT proliferation assay, 96 h; type: cell-based, human; details: for IC50: SAOS-2, proliferation, 10% FBS, read-out: IC50 (µM ± SD) Saos-2
Procedure: as §1, §2, §3, §4

[3] = system: HOS cells; assay: Migration, wound and transwell assays; type: cell-based, human; details: 24 h; for decrease of migration: wound and transwell assays
Procedure: (§5) The migration of the HOS and Saos-2 cells was examined using the wound and transwell assays. The wound assay was performed in plastic plates (3-cm diameter, Nunc), in which the osteosarcoma cells were seeded at a density of 3.0 × 10^5 cells/mL. The assay was performed as described previously. Briefly, confluent cell cultures (with wounds) were treated with compounds 4 and 6 at concentrations of 12.5, 25, 50 µM and 20, 40, 80 µM as well as 15, 30, 60 µM and 21.25, 42.5, 85 µM for 24 h, respectively. The solutions of the compounds were prepared in a medium with 2% FBS. The control was constituted by the untreated cells (0 µM). To determine the migratory activity of the cells, the width of the wounds (at 0 and 24 h after incubation) was measured, and photos were taken using an inverted microscope Olympus CKX41 equipped with Image Processing (CellSense) software (Olympus, Tokyo, Japan). The results were expressed as a percentage of wound closure calculated using the following formula: ((width of wound at 0h—width of wound after 24h)/width of wound at 0h) × 100%.
(§6) The transwell migration assay was performed using inserts equipped with a membrane with 8 µm pore size in 24-well plates (Corning, Durham, NC, USA). To this end, the osteosarcoma cells (1 × 10^6 cells/mL) were suspended in a medium supplemented with 0.5% FBS and compounds 4 or 6 at the same concentrations as in the wound assay. The cells were added to the top chambers. The bottom chambers were filled with an appropriate medium supplemented with 10% FBS. After 24 h of incubation, the number of osteosarcoma cells migrating to the lower surface of the insert membrane was quantified using Calcein AM (Sigma Aldrich), which releases the fluorophore after intracellular degradation. The fluorescence was measured by means of a Perkin Elmer Victor^TM plate reader (Thermo Fisher Scientific, Rockford, IL, USA). The cell migratory activity after the treatment with compounds 4 and 6 was calculated as a percentage of invading cells in comparison with the number of invading untreated cells (100%; control).

[4] = system: Saos-2 cells; assay: Migration, wound and transwell assays; type: cell-based, human; details: Saos-2, 24 h
Procedure: as §5, §6

[5] = molecular target: T1, NEP (neprilysin) (Homo sapiens, UniProt P08473); assay: Neutral endopeptidase activity assay (fluorometric); type: biochemical; details: vs control
T1 construct: purchased BioVision, Waltham, MA, USA
Procedure: The NEP activity in the presence of compounds 4 and 6 was determined using the Neprilysin Activity Assay Kit (BioVision, Waltham, MA, USA) according to the manufacturer’s instructions. The measurement is based on the ability of active neprilysin to cleave a synthetic substrate (Abz-based peptide) to release a fluorophore, which can be easily quantified using a fluorescence microplate reader. Briefly, pure neprilysin (5µLof stock solution) was incubated with solutions of the tested compounds (at least 4 concentrations in the range of 0.01–50 µM) for 10 min at 37 °C. The reaction was started by adding the substrate solution, and the final sample volume was 100µL. Fluorescence was measured (Ex/Em = 330/430nm) in the kinetic mode at 37 °C for 1–2 h. The same procedure was used to measure the control and background sample. Thiorphan was used as a reference NEP inhibitor. NEP activity was determined with the prepared Abz standard curve and expressed in µU/mL. The experiments were performed at least in triplicates, and the graphs represent mean ±SD values.

T1 sequence (P08473 whole entry): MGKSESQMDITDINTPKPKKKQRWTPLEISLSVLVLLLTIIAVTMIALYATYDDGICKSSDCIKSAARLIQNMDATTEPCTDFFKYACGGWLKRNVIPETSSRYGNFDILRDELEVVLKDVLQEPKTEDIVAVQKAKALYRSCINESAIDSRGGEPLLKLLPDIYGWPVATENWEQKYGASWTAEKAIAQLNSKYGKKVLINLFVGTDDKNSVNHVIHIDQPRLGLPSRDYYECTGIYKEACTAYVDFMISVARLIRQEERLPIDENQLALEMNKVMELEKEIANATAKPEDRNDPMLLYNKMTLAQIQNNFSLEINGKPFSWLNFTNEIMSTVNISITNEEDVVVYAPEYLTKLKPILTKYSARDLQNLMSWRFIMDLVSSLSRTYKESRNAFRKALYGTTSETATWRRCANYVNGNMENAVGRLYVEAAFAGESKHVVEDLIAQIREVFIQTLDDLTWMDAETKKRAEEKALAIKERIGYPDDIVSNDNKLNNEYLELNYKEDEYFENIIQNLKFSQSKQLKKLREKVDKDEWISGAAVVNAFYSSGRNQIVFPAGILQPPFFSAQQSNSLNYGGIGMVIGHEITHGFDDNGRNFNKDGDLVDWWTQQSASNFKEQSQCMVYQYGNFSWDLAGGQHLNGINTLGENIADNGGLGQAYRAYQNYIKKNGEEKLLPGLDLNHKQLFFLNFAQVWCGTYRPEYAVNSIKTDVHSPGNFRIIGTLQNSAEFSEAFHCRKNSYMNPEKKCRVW

Row | Structure (SMILES) | lowest concentration that inhibited proliferation statistically significantly [1] [µM] | inhibition at 6.25 µM ([1]; Homo sapiens, 6.25 µM) [%] | IC50 ([1]; Homo sapiens) [µM] | IC50 ([2]; Homo sapiens, MTT) [µM] | inhibition at 25 µM ([2]; Homo sapiens, Saos-2, 25 µM, MTT, compared to the control) [%] | lowest concentration that inhibited proliferation statistically significantly ([2]; Saos-2, MTT) [µM] | decrease of migration ([3]; 25 µM) | decrease of migration ([3]; 50 µM) | effect on migration [4] | inhibition at 0.1 µM ([5]; 0.1 µM) [%] | inhibition at 0.5 µM ([5]; 0.5 µM) [%] | inhibition at 10 µM ([5]; 10 µM) [%] | inhibition at 50 µM [5] [%] | depression of migration ([3]; 80 µM)
1 | [BH3-][P+](OC(C)C)(OC(C)C)C(Nc1ccc(Br)cc1)c1ccc([N+](=O)[O-])cc1 (stereo not drawn) [Compound 4, [1-(N-p-bromophenylamino)]-1-(p-nitrophenyl)methylphosphonousacid-borane diisopropyl ester] | 6.25 | ~18 | 27.2 ± 7.8 | 59.9 ± 15 | ~27 | 25 | approx. 19% | approx. 38% | not affected | ~40 | ~50 | ~50 | ~50 | –
2 | [BH3-][P+](OC(C)C)(OC(C)C)C(Nc1ccc(C)cc1)c1ccccc1 (stereo not drawn) [Compound 6, [1-(N-p-tolylamino)]-1-phenylmethylphosphonous acid-borane diisopropyl ester] | – | – | 41.5 ± 6.9 | 86.8 ± 15.7 | – | – | – | – | not affected | – | – | – | ~30 | approx. 20%
